How the values were obtained:
[1] = test system: procaspase-3 in U-937, A549, BT-549 cell lines; test: Western blot of procaspase-3 cleavage to caspase-3 in cancer cell lines; format: cell-based, human
Description: FIG. 5. PAC-1/1541B combinations induce rapid and dramatic procaspase-3 maturation and activation. A: The caspase-3/-7-like activity of cancer cell lysates after treatment with the PAC-1/1541B combinations. STS=staurosporine. B: Western blot of various cancer cell lines (using Cell Signaling caspase-3 antibody) after treatment with combinations of PAC-1 and 1541B.
FIG. 6. Data analogous to FIG. 5B with A: HL-60 (human leukemia), B: EL4 (murine lymphoma), C: Hs578T (human breast cancer), and D: Jurkat (human leukemia) cell lines.
FIG. 13. Western blot procaspase3 activation analysis of U-937 cells treated with increasing concentrations of 1541B and either with or without PAC-1.
To determine if the elevation of DEVDase activity was the result of enhanced cleavage of procaspase-3 to caspase-3 facilitated by compound co-treatment, cells treated with PAC-1 and 1541B combinations were assessed by Western blot.
Rather 1541 operates by an allosteric binding and activation mechanism.

[2] = test system: EL4 (murine lymphoma) cells; test: EL4 syngeneic murine tumor model; format: in vivo, C57/BL6 mice; settings: PAC-1 125 mg/kg in HPβCD once-a-day for three days; tumors weighed after 8 days
Description: EL4 cells (10 million cells per mouse) were injected subcutaneously into mice, the animals were split into four groups and treated with vehicle (2-hydroxypropyl-β-cyclodextrin, HPβCD), 1541B (at 17.5 mg/kg in HPβCD), PAC-1 (125 mg/kg in HPβCD), or 1541B+PAC-1 (17.5 and 125 mg/kg, respectively, in HPβCD). After eight days the mice were sacrificed and the tumors excised and weighed. Error bars equal standard error, and p-values indicated are relative to vehicle control.
To explore the therapeutic utility of this dual procaspase-3 activation strategy, the combination of PAC-1 and 1541B were examined in a murine tumor model.
C57/BL6 mice implanted with EL4 (murine lymphoma) cells were treated with PAC-1 alone (125 mg/kg), 1541B alone (17.5 mg/kg), and PAC-1+1541B (125 mg/kg and 17.5 mg/kg, respectively) once-a-day for three days.

MCF-7 cells = test: Protection by a pan-caspase inhibitor against PAC-1/1541B-mediated cell death; format: cell-based; settings: Q-VD-OPh 25 μM
Description: The proapoptotic effect of the PAC-1/1541B combination was blocked with the pan-caspase inhibitor Q-VD-OPh, consistent with the involvement of caspases in the mode of cell death (FIG. 10).

SMILES | activation of procaspase-3 to caspase-3 (Western blot) [1] | effect on tumor growth [2] | protection against PAC-1/1541B-mediated cell death (MCF-7 cells)
C=CCc1cccc(/C=N/NC(=O)CN2CCN(Cc3ccccc3)CC2)c1O [PAC-1, 2-(4-benzylpiperazin-1-yl)-N-[(2-hydroxy-3-prop-2-enyl-phenyl)methylideneamino]acetamide] | low/no procaspase-3 activation | only minimal effect | 
CC(C)[C@H](NC(=O)c1ccc2ccccc2n1)C(=O)N[C@@H](CC(=O)O)C(=O)COc1c(F)cccc1F [Q-VD-OPh] |  |  | protects against PAC-1/1541B-mediated cell death

Reference: patent US9592229B2, “Potent anticancer activity via dual compound activation” (priority 2012, dated 2017)
